From patent US12377058B1, “Method for inhibiting proliferation of cancer cells” (IMAM MOHAMMAD IBN SAUD ISLAMIC UNIVERSITY, priority 2024, dated 2025) come the findings set out here.

In brackets after ≈: the same amount, converted by molar mass.

Format in all cases: cell-based
For test [1], the system named is FaDu cancer stem cells. As to the kind of experiment: cytotoxic IC50 evaluation against FaDu cells. The note with it: Homo sapiens, read from FIG. 3. An excerpt:
(§1) Referring to FIG. 3, cytotoxic inhibitory concentration of 50 (IC50) evaluation of YS3 against various cancer cells is illustrated.

The test system of test [2] is MDA-MB-468 cancer stem cells. In words: cytotoxic IC50 evaluation against MDA-MB-468 cells. To be noted: Homo sapiens, read from FIG. 3.
Description: as §1

In test [3] the test system is HELA cancer stem cells. In words: cytotoxic IC50 evaluation against HeLa cells.
Description: as §1

For test [4], the system named is A549 lung cancer stem cells. As to the kind of experiment: cytotoxic IC50 evaluation against A549 cells.
Description: as §1

For test [5], the system named is PC3 cancer stem cells. As to the kind of experiment: cytotoxic IC50 evaluation against PC3 cells.
Description: as §1

One may read the IC50 as the concentration at which inhibition is half-maximal. Lower therefore signals inhibition by little substance. For `CCCCCOc1ccc(Oc2ccc(C=O)cc2)cc1` [YS3, 4-(4-(pentoxy)phenoxy)benzaldehyde], the 50% inhibitory concentration (IC50) in test [1] was approximately 4 µg/mL (≈ 14.1 µM); in test [2], approximately 4.5 µg/mL (≈ 15.8 µM); in test [3] (Homo sapiens, HELA cancer stem cells, read from FIG. 3), approximately 5 µg/mL (≈ 17.6 µM); in test [4] (Homo sapiens, A549 lung cancer stem cells, read from FIG. 3), approximately 5 µg/mL (≈ 17.6 µM); in test [5] (Homo sapiens, PC-3, PC3 cancer stem cells, read from FIG. 3), approximately 4 µg/mL (≈ 14.1 µM). For the same compound, the “performance compared to doxorubicin (DOX)” value in test [3] (HeLa cell line), in test [4] (A549 cell line) and in test [5] (PC3 cell line) was “comparable to DOX” in each case.
